# Test results: paper PMC8053501 (Diabetes, Metabolic Syndrome and Obesity: Targets and …, 2021)
# “Also recorded” adds a separate entry of the source. Like-named read-outs stand apart in the source and are kept apart here.
# Assays:
# [1] = test system: diabetes mellitus patients; assay: Acute kidney injury; format: in vivo, human; conditions: for Association with AKI, Unadjusted (95% CI) / Association with AKI, Adjusted (95% CI): metformin as reference; for Association with AKI, Adjusted (95% CI): multivariate; for Association with AKI compared to control drug metformin, in words: multivariate analysis; for Events During the 90 days (AKI): primary endpoint, first 90 days, patients above 55 years; for Total endpoint (AKI events): primary plus secondary endpoint; for Events at secondary end (AKI): secondary endpoint, after 90 days of hospital admission; for Total Percent (incidence rate of AKI at the end of the study): share of the 4966 total outcomes
# [2] = normal mice, oral gavage, 3mg/kg
# [3] = in vivo; conditions: male, ICR, mouse, po
# [4] = Endpoint Diagnosis with 1047 Outcome
# [5] = Secondary Diagnosis with 3919 Outcomes
compound,measurement,setting,value
"Cn1c(=O)cc(N2CCC[C@@H](N)C2)n(Cc2ccccc2C#N)c1=O [Alogliptin, alogliptin]","Association with AKI, Unadjusted (95% CI)",[1]; [4],1.83 (1.75–2.16)
same,"Association with AKI, Adjusted (95% CI)",[1]; [4],1.43 (1.31–2.04)
same,"Association with AKI, Unadjusted (95% CI)",[1]; [5],2.27 (1.08–3.12)
same,"Association with AKI, Adjusted (95% CI)",[1]; [5],2.85 (2.26–3.07)
same,"Association with AKI compared to control drug metformin, in words",[1],increased rate of AKI
same,Events During the 90 days (AKI),[1],91
same,Total endpoint (AKI events),[1],364
same,Events at secondary end (AKI),[1],273
same,Total Percent (incidence rate of AKI at the end of the study),[1],7.33%
same,"Drug concentration, time course","[2]; Kidney, 0h",0
same,"Drug concentration, time course","[2]; Kidney, 3h",6700
same,"Drug concentration, time course","[2]; Kidney, 6h",4300
same,"Drug concentration, time course","[2]; Kidney, 9h",2350
same,"Drug concentration, time course","[2]; Kidney, 12h",100
same,"Drug concentration, time course","[2]; Kidney, 15h",50
same,"Drug concentration, time course","[2]; Kidney, 18h",0
same,"Drug concentration, time course","[2]; Kidney, 21h",0
same,"Drug concentration, time course","[2]; Kidney, 24h",0
same,"Drug concentration, time course","[2]; Liver, 0h",0
same,"Drug concentration, time course","[2]; Liver, 3h",6340
same,"Drug concentration, time course","[2]; Liver, 6h",3500
same,"Drug concentration, time course","[2]; Liver, 9h",1980
same,"Drug concentration, time course","[2]; Liver, 12h",300
same,"Drug concentration, time course","[2]; Liver, 15h",100
same,"Drug concentration, time course","[2]; Liver, 18h",0
same,"Drug concentration, time course","[2]; Liver, 21h",0
same,"Drug concentration, time course","[2]; Liver, 24h",0
same,"Drug concentration, time course","[2]; Plasma, 0h",0
same,"Drug concentration, time course","[2]; Plasma, 3h",400
same,"Drug concentration, time course","[2]; Plasma, 6h",250
same,"Drug concentration, time course","[2]; Plasma, 9h",50
same,"Drug concentration, time course","[2]; Plasma, 12h",0
same,"Drug concentration, time course","[2]; Plasma, 15h",0
same,"Drug concentration, time course","[2]; Plasma, 18h",0
same,"Drug concentration, time course","[2]; Plasma, 21h",0
same,"Drug concentration, time course","[2]; Plasma, 24h",0
same,Tmax,[3],1 h
same,Tmax,[3]; 3 mg/kg,1 h
same,Cmax,"[3]; 3 mg/kg, oral gavage, Kidney",8560 ng/mL
same,Cmax,"[3]; 3 mg/kg, oral gavage, Liver",6730 ng/mL
same,Cmax,"[3]; 3 mg/kg, oral gavage, Plasma",943 ng/mL
same,half-life,"[3]; 3 mg/kg, t1/2",2.4 h
"CC1(C)S[C@@H]2[C@H](NC(=O)[C@H](N)c3ccc(O)cc3)C(=O)N2[C@H]1C(=O)O [Amoxicillin, amoxicillin]","Association with AKI, Unadjusted (95% CI)",[1]; [4],1.73 (1.16–1.85)
same,"Association with AKI, Adjusted (95% CI)",[1]; [4],1.36 (1.06–1.54)
same,"Association with AKI, Unadjusted (95% CI)",[1]; [5],1.17 (0.88–1.43)
same,"Association with AKI, Adjusted (95% CI)",[1]; [5],1.34 (1.07–1.82)
same,Events During the 90 days (AKI),[1],48
same,Total endpoint (AKI events),[1],293
same,Events at secondary end (AKI),[1],245
same,Total Percent (incidence rate of AKI at the end of the study),[1],5.9%
same,"Drug concentration, time course","[2]; Kidney, 0h",9860
same,"Drug concentration, time course","[2]; Kidney, 3h",7320
same,"Drug concentration, time course","[2]; Kidney, 6h",5670
same,"Drug concentration, time course","[2]; Kidney, 9h",2340
same,"Drug concentration, time course","[2]; Kidney, 12h",730
same,"Drug concentration, time course","[2]; Kidney, 15h",60
same,"Drug concentration, time course","[2]; Kidney, 18h",0
same,"Drug concentration, time course","[2]; Kidney, 21h",0
same,"Drug concentration, time course","[2]; Kidney, 24h",0
same,"Drug concentration, time course","[2]; Liver, 0h","12,110"
same,"Drug concentration, time course","[2]; Liver, 3h",8700
same,"Drug concentration, time course","[2]; Liver, 6h",5470
same,"Drug concentration, time course","[2]; Liver, 9h",1350
same,"Drug concentration, time course","[2]; Liver, 12h",200
same,"Drug concentration, time course","[2]; Liver, 15h",30
same,"Drug concentration, time course","[2]; Liver, 18h",0
same,"Drug concentration, time course","[2]; Liver, 21h",0
same,"Drug concentration, time course","[2]; Liver, 24h",0
same,"Drug concentration, time course","[2]; Plasma, 0h",370
same,"Drug concentration, time course","[2]; Plasma, 3h",80
same,"Drug concentration, time course","[2]; Plasma, 6h",45
same,"Drug concentration, time course","[2]; Plasma, 9h",0
same,"Drug concentration, time course","[2]; Plasma, 12h",0
same,"Drug concentration, time course","[2]; Plasma, 15h",0
same,"Drug concentration, time course","[2]; Plasma, 18h",0
same,"Drug concentration, time course","[2]; Plasma, 21h",0
same,"Drug concentration, time course","[2]; Plasma, 24h",0
same,Tmax,[3],1 h
same,Tmax,[3]; 3 mg/kg,1 h
same,Cmax,"[3]; 3 mg/kg, oral gavage, Kidney",4510 ng/mL
same,Cmax,"[3]; 3 mg/kg, oral gavage, Liver",3980 ng/mL
same,Cmax,"[3]; 3 mg/kg, oral gavage, Plasma",945 ng/mL
same,half-life,"[3]; 3 mg/kg, t1/2",1.6 h
"Cc1ccc(-c2cc(C(F)(F)F)nn2-c2ccc(S(N)(=O)=O)cc2)cc1 [Celecoxib, celecoxib]","Association with AKI, Unadjusted (95% CI)",[1]; [4],2.95 (2.68–3.25)
same,"Association with AKI, Adjusted (95% CI)",[1]; [4],2.32 (2.12–2.68)
same,"Association with AKI, Unadjusted (95% CI)",[1]; [5],1.87 (1.64–2.43)
same,"Association with AKI, Adjusted (95% CI)",[1]; [5],1.86 (1.53–2.77)
same,"Association with AKI compared to control drug metformin, in words",[1],increased rate of AKI; also recorded: higher risk for AKI
same,Events During the 90 days (AKI),[1],112
same,Total endpoint (AKI events),[1],533
same,Events at secondary end (AKI),[1],421
same,Total Percent (incidence rate of AKI at the end of the study),[1],10.72%
same,"Drug concentration, time course","[2]; Kidney, 0h",0
same,"Drug concentration, time course","[2]; Kidney, 3h","10,340"
same,"Drug concentration, time course","[2]; Kidney, 6h",8900
same,"Drug concentration, time course","[2]; Kidney, 9h",6480
same,"Drug concentration, time course","[2]; Kidney, 12h",2100
same,"Drug concentration, time course","[2]; Kidney, 15h",450
same,"Drug concentration, time course","[2]; Kidney, 18h",0
same,"Drug concentration, time course","[2]; Kidney, 21h",0
same,"Drug concentration, time course","[2]; Kidney, 24h",0
same,"Drug concentration, time course","[2]; Liver, 0h",0
same,"Drug concentration, time course","[2]; Liver, 3h","13,200"
same,"Drug concentration, time course","[2]; Liver, 6h",9800
same,"Drug concentration, time course","[2]; Liver, 9h",6250
same,"Drug concentration, time course","[2]; Liver, 12h",2300
same,"Drug concentration, time course","[2]; Liver, 15h",400
same,"Drug concentration, time course","[2]; Liver, 18h",50
same,"Drug concentration, time course","[2]; Liver, 21h",0
same,"Drug concentration, time course","[2]; Liver, 24h",0
same,"Drug concentration, time course","[2]; Plasma, 0h",0
same,"Drug concentration, time course","[2]; Plasma, 3h",250
same,"Drug concentration, time course","[2]; Plasma, 6h",50
same,"Drug concentration, time course","[2]; Plasma, 9h",30
same,"Drug concentration, time course","[2]; Plasma, 12h",0
same,"Drug concentration, time course","[2]; Plasma, 15h",0
same,"Drug concentration, time course","[2]; Plasma, 18h",0
same,"Drug concentration, time course","[2]; Plasma, 21h",0
same,"Drug concentration, time course","[2]; Plasma, 24h",0
same,Tmax,[3],0.5 h
same,Tmax,[3]; 3 mg/kg,0.5 h
same,Cmax,"[3]; 3 mg/kg, oral gavage, Kidney",12100 ng/mL
same,Cmax,"[3]; 3 mg/kg, oral gavage, Liver",11700 ng/mL
same,Cmax,"[3]; 3 mg/kg, oral gavage, Plasma",983 ng/mL
same,half-life,"[3]; 3 mg/kg, t1/2, mouse, oral gavage, Kidney",4.5 h
same,half-life,"[3]; 3 mg/kg, t1/2, mouse, oral gavage, Liver",3.6 h
same,half-life,"[3]; 3 mg/kg, t1/2, mouse, oral gavage, Plasma",2.4 h
"CC(C)Cc1ccc(C(C)C(=O)O)cc1 (centres unmarked) [Ibuprofen, ibuprofen]","Association with AKI, Unadjusted (95% CI)",[1]; [4],3.14 (2.87–3.74)
same,"Association with AKI, Adjusted (95% CI)",[1]; [4],2.41 (1.91–2.54)
same,"Association with AKI, Unadjusted (95% CI)",[1]; [5],2.68 (2.21–3.03)
same,"Association with AKI, Adjusted (95% CI)",[1]; [5],2.36 (1.84–2.93)
same,"Association with AKI compared to control drug metformin, in words",[1],higher risk for AKI
same,"Association with AKI compared to control drug metformin, in words",[1]; listed as ibuprofen,increased rate of AKI
same,Events During the 90 days (AKI),[1],124
same,Events at secondary end (AKI),[1],433
same,Total Percent (incidence rate of AKI at the end of the study),[1],11.22%
same,"Drug concentration, time course","[2]; Kidney, 0h",0
same,"Drug concentration, time course","[2]; Kidney, 6h","16,500"
same,"Drug concentration, time course","[2]; Kidney, 9h",9500
same,"Drug concentration, time course","[2]; Kidney, 12h",3500
same,"Drug concentration, time course","[2]; Kidney, 15h",1000
same,"Drug concentration, time course","[2]; Kidney, 18h",200
same,"Drug concentration, time course","[2]; Kidney, 21h",100
same,"Drug concentration, time course","[2]; Kidney, 24h",0
same,"Drug concentration, time course","[2]; Liver, 0h",0
same,"Drug concentration, time course","[2]; Liver, 3h",9500
same,"Drug concentration, time course","[2]; Liver, 6h",7600
same,"Drug concentration, time course","[2]; Liver, 9h",1800
same,"Drug concentration, time course","[2]; Liver, 12h",600
same,"Drug concentration, time course","[2]; Liver, 15h",150
same,"Drug concentration, time course","[2]; Liver, 18h",0
same,"Drug concentration, time course","[2]; Liver, 21h",0
same,"Drug concentration, time course","[2]; Liver, 24h",0
same,"Drug concentration, time course","[2]; Plasma, 0h",0
same,"Drug concentration, time course","[2]; Plasma, 3h",600
same,"Drug concentration, time course","[2]; Plasma, 6h",400
same,"Drug concentration, time course","[2]; Plasma, 9h",140
same,"Drug concentration, time course","[2]; Plasma, 12h",0
same,"Drug concentration, time course","[2]; Plasma, 15h",0
same,"Drug concentration, time course","[2]; Plasma, 18h",0
same,"Drug concentration, time course","[2]; Plasma, 21h",0
same,"Drug concentration, time course","[2]; Plasma, 24h",0
same,Tmax,[3],1 h
same,Tmax,[3]; 3 mg/kg,1 h
